# Values quoted from earlier work in patent US20210268011A1, “AMPK ACTIVATING AGENT” (ORYZA OIL & FAT CHEMICAL CO., LTD., priority 2018, published 2021).
# System: AMPK
# Settings: recent research, Non-patent Document 4; cited from earlier work
compound,measurement,value
CN(C)C(=N)N=C(N)N [metformin],AMPK activation,activated
